In US12618070B2, “Increasing Atoh1 life to drive sensorineural hair cell differentiation” (Massachusetts Eye and Ear Infirmary, priority 2014, dated 2026):
“Also recorded” adds a separate entry of the source. Peptide text beside a SMILES is read from it. * marks the point of attachment. Cbz = O=C(OCc1ccccc1)*

Legend:
Format in all cases: cell-based
Atoh1 [1] = experiment: Atoh1 level after proteasome inhibition in HEK cells transfected with FLAG-Atoh1; conditions: MG132 10 uM, 3 hours, vs DMSO
Procedure: (§1) FIGS. 2A-E. Atoh1 is degraded by the ubiquitin-proteasome pathway. […] HEK cells were transfected with FLAG-Atoh1 plasmid (1 ug/ml) for 24 hours, and incubated with either DMSO or MG132 (10 uM) for 3 hours and immunoprecipitated using FLAG (Atoh1) or beta-actin (loading control) antibodies. (B) FLAG-HA-Atoh1 293T cells were treated with cycloheximide (100 ug/ml) and MG132 (10 uM) at the indicated times and immunoprecipitated with FLAG (Atoh1) or beta-actin (loading control) antibodies. Time of treatment is indicated. (C) Half-lives based on densitometry from 3 experiments are shown. The ratio of Atoh1 to β-actin was plotted after normalization. Error bars indicate SEM. (D) & (E). Atoh1 is polyubiquitylated and degraded by the ubiquitin-proteasome pathway. FLAG-HA-Atoh1 293T cells were treated with either DMSO or MG132 (10 uM) for 6 hours. Lysates were immunoprecipitated with anti-FLAG antibody and subjected to immunoblotting with a ubiquitin antibody. FLAG was used to assess immunoprecipitation.
To determine if the ubiquitin-proteasome pathway was involved in Atoh1 degradation, HEK cells were transfected with FLAG-Atoh1 (1 μg/ml) using Lipofectamine 2000 (Invitrogen) for […] and either DMSO or MG132 (10 μM) for […]. Transfected cells were lysed in Pierce IP Lysis Buffer (Thermo) containing 1× complete protease inhibitors and 1×PhosSTOP phosphatase inhibitors (Roche). […]

Atoh1 [2] = experiment: Polyubiquitylation of Atoh1: anti-FLAG immunoprecipitation, ubiquitin immunoblot; conditions: MG132 10 uM, 6 hours
Procedure: as §1, with “immunoprecipitation. […]” for “immunoprecipitation.”
We then assessed polyubiquitylation of Atoh1 in the presence of a proteasome inhibitor which would prevent degradation of the ubiquitinated protein. […] The cell lysates were immunoprecipitated with anti-FLAG antibody, and the pattern of ubiquitylation was assessed with an anti-ubiquitin antibody.

Atoh1 [3] = experiment: Atoh1 level in P1 organ of Corti explants treated with proteasome inhibitor; conditions: P1 mouse organ of Corti, MG132 10 uM, 3 hours, vs DMSO
Procedure: FIG. 10. Inhibition of proteasome activity stabilizes Atoh1 in the cochlea. The organ of Corti from a P1 mouse was treated with proteasome inhibitor, MG132 (10 uM) for 3 hours. Atoh1 levels were higher in the MG132-treated organ of Corti. DMSO served as control; β-actin is a loading control.
Cochlear tissues were dissected from 1-day postnatal CD-1 mice (Charles River Laboratories). Spiral ganglion, Reissner's membrane, and the hook region of the organ of Corti were removed to obtain a flat cochlear surface preparation (Parker et al., 2010). Explants were plated onto 4-well plates (Greiner Bio-One) coated with Matrigel (BD Biosciences) diluted 1:10 in DMEM supplemented with 10% fetal bovine serum overnight.
To test whether proteasomal activity regulated Atoh1 in the cochlea we treated P1 organ of Corti explants with proteasome inhibitor, MG132 (10 uM).

Atoh1 [4] = experiment: Cycloheximide chase of Atoh1 with proteasome inhibitor or Huwe1 shRNA in FLAG-HA-Atoh1 293T cells; conditions: cycloheximide 100 ug/ml plus MG132 10 uM
Procedure: as §1, with “Atoh1 is polyubiquitylated and degraded by the ubiquitin-proteasome pathway. FLAG-HA-Atoh1 293T cells were treated with either DMSO or MG132 (10 uM) for 6 hours. Lysates were immunoprecipitated with anti-FLAG antibody and subjected to immunoblotting with a ubiquitin antibody. FLAG was used to assess immunoprecipitation.” left out
FIGS. 9A-D. Huwe1 plasmid increased and Huwe1 siRNA inhibited degradation of Atoh1. […] Quantification of Atoh1, Huwe1 and a loading control (HSC70) were performed by Western blotting and densitometry. […] Atoh1 (FLAG) and Huwe1 were analyzed by Western blotting and densitometry normalized to loading controls in three experiments. […]
HEK cells were transfected with either FLAG-Atoh1 (wild-type), or indicated mutant FLAG-Atoh1 plasmids (1 μg/ml) using Lipofectamine 2000 (3 μl per 1 μg of cDNA, Invitrogen). […] Protein bands were quantified by densitometry. The half-lives of indicated proteins were calculated using GraphPad Prism 6 software and a one-phase exponential-decay model.

FLAG-HA-Atoh1 293T cells = experiment: Cycloheximide chase, half-life of Atoh1 by Western blotting and densitometry
Procedure: FIGS. 1A-B. Atoh1 is a short-lived protein. (A) FLAG-HA-Atoh1 293T cells were treated with cycloheximide (100 ug/ml) and harvested at the indicated times. Lysates were processed for Western blotting with FLAG antibody (Atoh1) or β-actin antibody (loading control). Labels indicate the time of chase. (B) Protein half-lives based on densitometry. The ratio of Atoh1 to β-actin was plotted after normalizing to the initial ratio set to 100. Error bars indicate SEM.
HEK cells were transfected with either FLAG-Atoh1 (wild-type), or indicated mutant FLAG-Atoh1 plasmids (1 μg/ml) using Lipofectamine 2000 (3 μl per 1 μg of cDNA, Invitrogen). Forty-eight hours after transfection, 100 μg/ml cycloheximide (Sigma) was added to block protein synthesis. Cells were harvested at 0, 30, 60, 120, and 240 minutes. Equal amounts of protein from each treatment were taken for Western blotting. Protein bands were quantified by densitometry. The half-lives of indicated proteins were calculated using GraphPad Prism 6 software and a one-phase exponential-decay model.
To determine the half-life of Atoh1, we used cycloheximide to prevent new protein synthesis and followed the time course of disappearance of previously synthesized Atoh1 by Western blotting during a chase period. We transfected 293T cells with FLAG-HA-Atoh1 and treated with cycloheximide at 48 hours after transfection.

**Q.** Which “level of Atoh1” value (Atoh1 [1]) does the source give for `CC(C)C[C@@H](C=O)NC(=O)[C@H](CC(C)C)NC(=O)[C@H](CC(C)C)NC(=O)OCc1ccccc1` [MG132] (Cbz-Leu-Leu-Leu-aldehyde) here?
**A.** The value was “significantly increased; also recorded: stabilized Atoh1 expression”.

**Q.** What about the “level of Atoh1 protein” value (Atoh1 [2]; FLAG-HA-Atoh1 293T cells, reprobed blot and input protein) of the same molecule?
**A.** The value was “increased the level of protein”.

**Q.** And the “density of high molecular weight poly-ubiquitin forms of Atoh1” value (Atoh1 [2]; FLAG-HA-Atoh1 cells, vs DMSO)?
**A.** The value was “increased the density”.

**Q.** And the “Atoh1 level in organ of Corti” value (Atoh1 [3])?
**A.** The value was “increased; also recorded: higher”.

**Q.** And the “half-life of Atoh1” value (Atoh1 [4])?
**A.** The value was “extended the half-life”.

B1: Atoh1: wild-type Atoh1 protein, FLAG- or FLAG-HA-tagged, expressed in HEK/293T cells (protein)
chain: MSRLLHAEEWAEVKELGDHHRQPQPHHLPQPPPPPQPPATLQAREHPVYPPELSLLDSTDPRAWLAPTLQGICTARAAQYLLHSPELGASEAAAPRDEVDGRGELVRRSSGGASSSKSPGPVKVREQLCKLKGGVVVDELGCSRQRAPSSKQVNGVQKQRRLAANARERRRMHGLNHAFDQLRNVIPSFNNDKKLSKYETLQMAQIYINALSELLQTPSGGEQPPPPPASCKSDHHHLRTAASYEGGAGNATAAGAQQASGGSQRPTPPGSCRTRFSAPASAGGYSVQLDALHFSTFEDSALTAMMAQKNLSPSLPGSILQPVQEENSKTSPRSHRSDGEFSPHSHYSDSDEAS
modifications: left off: large carriers
notes: wild-type Atoh1 protein, FLAG- or FLAG-HA-tagged, expressed in HEK/293T cells
**Q.** How did the “turnover rate of Atoh1” value (FLAG-HA-Atoh1 293T cells) turn out when B1 was run?
**A.** The value was “less than 1 hour”.
